For 31 molecules, AC50 results are on record in ChEMBL document CHEMBL5291721, “A preclinical secondary pharmacology resource illuminates target-adverse drug reaction associations of marketed drugs” (Nat Commun, 2023).

The target in one assay is T1, Androgen receptor (Rattus norvegicus, UniProt P15207).
T1 sequence (P15207 whole entry): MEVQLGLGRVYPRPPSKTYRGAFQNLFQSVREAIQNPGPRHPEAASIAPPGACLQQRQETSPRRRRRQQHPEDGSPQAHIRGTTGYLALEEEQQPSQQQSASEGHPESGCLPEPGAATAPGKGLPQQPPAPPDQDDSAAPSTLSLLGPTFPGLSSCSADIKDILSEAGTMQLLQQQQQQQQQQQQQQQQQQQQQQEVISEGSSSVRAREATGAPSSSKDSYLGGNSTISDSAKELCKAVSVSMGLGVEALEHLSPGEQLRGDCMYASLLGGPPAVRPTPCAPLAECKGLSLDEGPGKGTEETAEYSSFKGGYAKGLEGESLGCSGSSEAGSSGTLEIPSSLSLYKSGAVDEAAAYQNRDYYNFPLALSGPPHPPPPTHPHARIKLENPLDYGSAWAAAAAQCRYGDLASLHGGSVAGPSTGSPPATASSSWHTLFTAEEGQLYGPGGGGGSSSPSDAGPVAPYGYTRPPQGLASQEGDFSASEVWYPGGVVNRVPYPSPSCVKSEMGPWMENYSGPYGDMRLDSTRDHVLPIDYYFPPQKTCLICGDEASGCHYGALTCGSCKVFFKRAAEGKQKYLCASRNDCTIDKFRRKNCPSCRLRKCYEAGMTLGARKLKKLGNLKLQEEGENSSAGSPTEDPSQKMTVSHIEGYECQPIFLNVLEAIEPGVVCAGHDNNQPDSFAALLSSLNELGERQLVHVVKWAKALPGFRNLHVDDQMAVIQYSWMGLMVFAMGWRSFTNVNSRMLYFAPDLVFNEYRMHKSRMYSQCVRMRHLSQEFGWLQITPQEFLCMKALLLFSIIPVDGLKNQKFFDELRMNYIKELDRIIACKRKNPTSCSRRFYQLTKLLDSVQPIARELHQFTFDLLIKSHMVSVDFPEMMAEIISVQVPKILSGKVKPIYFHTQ
The format is functional.

The target in assay [1] is Synaptic vesicular amine transporter (Rattus norvegicus, UniProt Q01827). Format: functional.
Synaptic vesicular amine transporter, sequence (Q01827 whole entry): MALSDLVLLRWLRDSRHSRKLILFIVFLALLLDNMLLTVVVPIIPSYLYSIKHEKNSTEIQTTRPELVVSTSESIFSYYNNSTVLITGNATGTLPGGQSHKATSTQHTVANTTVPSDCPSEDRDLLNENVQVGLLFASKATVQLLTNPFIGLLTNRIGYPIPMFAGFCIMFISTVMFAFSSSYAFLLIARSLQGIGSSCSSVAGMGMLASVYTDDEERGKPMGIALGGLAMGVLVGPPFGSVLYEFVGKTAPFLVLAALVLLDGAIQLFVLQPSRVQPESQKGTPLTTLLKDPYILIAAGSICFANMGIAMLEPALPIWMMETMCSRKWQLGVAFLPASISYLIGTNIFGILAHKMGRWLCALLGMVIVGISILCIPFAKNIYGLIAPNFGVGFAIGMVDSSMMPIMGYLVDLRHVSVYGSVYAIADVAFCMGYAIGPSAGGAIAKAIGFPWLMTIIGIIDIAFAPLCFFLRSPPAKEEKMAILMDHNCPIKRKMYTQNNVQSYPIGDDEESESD
For a further assay, the target named is T2, Thromboxane A2 receptor (Homo sapiens, UniProt P21731).
T2 sequence (P21731 whole entry): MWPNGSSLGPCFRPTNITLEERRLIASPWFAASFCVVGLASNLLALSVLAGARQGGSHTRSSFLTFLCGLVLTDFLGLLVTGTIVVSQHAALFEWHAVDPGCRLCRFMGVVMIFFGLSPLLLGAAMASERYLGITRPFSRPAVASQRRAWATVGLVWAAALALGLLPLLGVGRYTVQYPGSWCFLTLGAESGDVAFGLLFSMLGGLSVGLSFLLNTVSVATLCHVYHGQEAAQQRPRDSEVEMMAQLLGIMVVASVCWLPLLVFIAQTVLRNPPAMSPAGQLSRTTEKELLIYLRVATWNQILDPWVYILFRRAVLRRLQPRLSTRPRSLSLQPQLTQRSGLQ
Format: functional.

The target of another assay is D(1A) dopamine receptor (Homo sapiens, UniProt P21728). Format: functional, cell-based.
D(1A) dopamine receptor, sequence (P21728 whole entry): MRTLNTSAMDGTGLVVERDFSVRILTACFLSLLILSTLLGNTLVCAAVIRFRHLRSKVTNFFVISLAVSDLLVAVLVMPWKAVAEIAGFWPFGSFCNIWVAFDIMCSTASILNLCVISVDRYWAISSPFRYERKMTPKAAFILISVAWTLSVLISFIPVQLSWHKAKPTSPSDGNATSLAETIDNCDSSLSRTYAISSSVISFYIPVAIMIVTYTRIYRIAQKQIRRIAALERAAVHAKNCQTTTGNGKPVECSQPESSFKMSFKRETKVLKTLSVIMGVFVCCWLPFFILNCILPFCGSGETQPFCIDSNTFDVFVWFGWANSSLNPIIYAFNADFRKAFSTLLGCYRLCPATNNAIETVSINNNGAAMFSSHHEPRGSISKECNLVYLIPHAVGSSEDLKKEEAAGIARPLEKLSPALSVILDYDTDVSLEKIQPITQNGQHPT
Assay [2] concerns the target Neurotensin receptor type 1 (Homo sapiens, UniProt P30989).
Assay [3] has as its target T3, Endothelin receptor type B (Homo sapiens, UniProt P24530).
T3 sequence (P24530 whole entry): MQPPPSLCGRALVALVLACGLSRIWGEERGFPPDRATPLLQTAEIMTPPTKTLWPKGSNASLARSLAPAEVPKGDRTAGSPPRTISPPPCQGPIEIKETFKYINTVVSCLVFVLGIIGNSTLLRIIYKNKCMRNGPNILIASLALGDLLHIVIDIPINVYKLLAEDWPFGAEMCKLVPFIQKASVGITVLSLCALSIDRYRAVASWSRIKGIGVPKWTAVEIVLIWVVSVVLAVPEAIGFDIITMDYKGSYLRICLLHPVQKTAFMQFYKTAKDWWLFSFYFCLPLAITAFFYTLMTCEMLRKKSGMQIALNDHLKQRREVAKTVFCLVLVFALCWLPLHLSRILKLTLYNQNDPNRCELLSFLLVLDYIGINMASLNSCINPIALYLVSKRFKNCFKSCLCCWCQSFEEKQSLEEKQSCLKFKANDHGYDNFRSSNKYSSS

Assay [4] concerns the target 5-hydroxytryptamine receptor 2B (Homo sapiens, UniProt P41595).
Assay [5] concerns the target T4, Gastric inhibitory polypeptide receptor (Homo sapiens, UniProt P48546).
T4 sequence (P48546 whole entry): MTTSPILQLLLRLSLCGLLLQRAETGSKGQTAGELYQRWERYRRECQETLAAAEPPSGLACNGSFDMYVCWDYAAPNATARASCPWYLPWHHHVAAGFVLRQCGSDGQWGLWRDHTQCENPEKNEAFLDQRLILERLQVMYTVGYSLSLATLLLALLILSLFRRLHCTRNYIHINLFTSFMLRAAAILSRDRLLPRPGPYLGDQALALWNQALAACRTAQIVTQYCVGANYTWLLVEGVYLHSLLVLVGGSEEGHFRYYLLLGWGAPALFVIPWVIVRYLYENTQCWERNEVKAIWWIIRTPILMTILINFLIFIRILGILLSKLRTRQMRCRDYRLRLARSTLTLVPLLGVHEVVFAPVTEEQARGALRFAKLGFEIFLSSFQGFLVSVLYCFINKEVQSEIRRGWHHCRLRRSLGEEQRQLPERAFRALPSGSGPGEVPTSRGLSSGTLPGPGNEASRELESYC

In another assay the target is Histamine H2 receptor (Homo sapiens, UniProt P25021).
Histamine H2 receptor, sequence (P25021 whole entry): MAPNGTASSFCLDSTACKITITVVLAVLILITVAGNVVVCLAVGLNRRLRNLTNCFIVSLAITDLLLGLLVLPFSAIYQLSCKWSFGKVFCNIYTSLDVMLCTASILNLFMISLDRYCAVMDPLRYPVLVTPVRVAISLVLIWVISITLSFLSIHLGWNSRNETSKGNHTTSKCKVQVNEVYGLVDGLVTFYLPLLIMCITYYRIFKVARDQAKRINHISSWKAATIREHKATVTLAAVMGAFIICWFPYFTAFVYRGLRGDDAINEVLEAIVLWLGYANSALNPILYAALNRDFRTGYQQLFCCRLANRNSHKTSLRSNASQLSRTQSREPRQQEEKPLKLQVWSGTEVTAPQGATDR
Assay [6] has as its target T5, Alpha-1A adrenergic receptor (Homo sapiens, UniProt P35348).
T5 sequence (P35348 whole entry): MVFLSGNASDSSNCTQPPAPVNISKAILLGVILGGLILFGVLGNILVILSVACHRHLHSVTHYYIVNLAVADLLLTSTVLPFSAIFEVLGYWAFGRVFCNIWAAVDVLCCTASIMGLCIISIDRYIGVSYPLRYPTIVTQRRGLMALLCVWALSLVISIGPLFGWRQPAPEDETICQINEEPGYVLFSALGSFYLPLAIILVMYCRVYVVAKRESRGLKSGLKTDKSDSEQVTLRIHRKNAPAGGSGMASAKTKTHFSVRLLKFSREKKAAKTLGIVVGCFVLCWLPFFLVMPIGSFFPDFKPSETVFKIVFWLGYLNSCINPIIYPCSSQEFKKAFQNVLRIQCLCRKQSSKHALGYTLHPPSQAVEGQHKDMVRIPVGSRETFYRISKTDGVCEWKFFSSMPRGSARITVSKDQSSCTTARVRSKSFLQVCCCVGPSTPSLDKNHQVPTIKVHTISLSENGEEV

Molecules are shown by their SMILES.
Further: assay procedure not described here.

5-hydroxytryptamine receptor 2B, sequence (P41595 whole entry): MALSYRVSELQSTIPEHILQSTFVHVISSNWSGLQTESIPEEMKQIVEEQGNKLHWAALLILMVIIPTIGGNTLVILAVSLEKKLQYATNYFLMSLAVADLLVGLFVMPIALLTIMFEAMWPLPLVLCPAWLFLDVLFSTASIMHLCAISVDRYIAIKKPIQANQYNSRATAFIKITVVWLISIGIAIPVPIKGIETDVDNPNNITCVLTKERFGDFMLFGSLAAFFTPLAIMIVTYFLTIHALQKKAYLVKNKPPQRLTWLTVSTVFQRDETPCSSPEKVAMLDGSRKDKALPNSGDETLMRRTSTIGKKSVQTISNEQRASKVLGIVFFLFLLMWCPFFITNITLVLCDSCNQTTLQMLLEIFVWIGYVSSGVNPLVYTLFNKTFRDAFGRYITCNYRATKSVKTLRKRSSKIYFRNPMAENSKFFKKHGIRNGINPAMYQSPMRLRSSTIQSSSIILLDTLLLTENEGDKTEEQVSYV
Neurotensin receptor type 1, sequence (P30989 whole entry): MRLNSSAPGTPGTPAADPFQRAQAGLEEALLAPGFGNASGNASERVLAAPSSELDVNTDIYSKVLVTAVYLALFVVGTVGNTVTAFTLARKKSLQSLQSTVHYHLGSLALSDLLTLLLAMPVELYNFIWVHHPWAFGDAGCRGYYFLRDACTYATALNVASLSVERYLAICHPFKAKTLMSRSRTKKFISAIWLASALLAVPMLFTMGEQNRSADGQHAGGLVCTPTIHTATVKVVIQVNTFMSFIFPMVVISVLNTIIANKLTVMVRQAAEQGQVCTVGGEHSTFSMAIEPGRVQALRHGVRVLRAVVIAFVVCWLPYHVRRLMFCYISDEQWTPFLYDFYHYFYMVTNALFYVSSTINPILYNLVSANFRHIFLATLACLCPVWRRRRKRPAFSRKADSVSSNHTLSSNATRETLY

As to `CC(C)(CO)c1cc2cc(NC(=O)C3(c4ccc5c(c4)OC(F)(F)O5)CC3)c(F)cc2n1C[C@@H](O)CO` [TEZACAFTOR], the concentration at half-maximal activity (AC50) – broadly, the concentration at which the activity in the assay is half-maximal – on Androgen receptor was over 30 µM.

As to `O=c1[nH]c2ccccc2n1CCN1CCN(c2cccc(C(F)(F)F)c2)CC1` [FLIBANSERIN], the AC50 in assay [1] is 0.072 µM. This lies in the double-digit nanomolar range.

For `CO[C@@H]1[C@@H](OC(N)=O)[C@@H](O)[C@H](Oc2ccc3c(O)c(NC(=O)c4ccc(O)c(CC=C(C)C)c4)c(=O)oc3c2C)OC1(C)C` [NOVOBIOCIN], the AC50 at Thromboxane A2 receptor and at D(1A) dopamine receptor was over 30 µM each time.

`COc1cc2c(cc1OC)C1CC(=O)C(CC(C)C)CN1CC2` (configuration not stated) [TETRABENAZINE] displayed a half-maximal activity concentration (AC50) at D(1A) dopamine receptor of over 30 µM.

`CCN(CC)CCn1c(=O)c(Cc2ccc(OC)cc2)nc2ccccc21` [CAROVERINE] showed an AC50 on Androgen receptor of over 30 µM.

`C[C@@H](O)[C@H]1C(=O)N2C(C(=O)O)=C(SCCN=CN)C[C@H]12` [IMIPENEM ANHYDROUS]: the AC50 at Thromboxane A2 receptor and on D(1A) dopamine receptor was over 300 µM each time.

As to `CN1CC2c3ccccc3Oc3ccc(Cl)cc3C2C1` (configuration not stated) [ASENAPINE], the AC50 is 0.244 µM on D(1A) dopamine receptor and 1.05 µM in [1].

With `C[C@]12CCC(=O)C=C1CC[C@H]1[C@@H]3CC[C@](O)(C(=O)CO)[C@@]3(C)C[C@H](O)[C@@]12F` [FLUDROCORTISONE], the concentration at half-maximal activity (AC50) is over 30 µM in assay [2]; over 30 µM in assay [3]; over 10 µM in [4]; over 30 µM in assay [5]; over 10 µM at Histamine H2 receptor.

With `c1cnc2cc3c(cc2n1)[C@@H]1CNC[C@H]3C1` [VARENICLINE], the AC50 at Thromboxane A2 receptor and at D(1A) dopamine receptor was over 30 µM in each case.

Turning to `Cc1c(C)c2c(c(C)c1O)CCC(C)(COc1ccc(CC3SC(=O)NC3=O)cc1)O2` (configuration not stated) [TROGLITAZONE], the AC50 (in assay [2]; in assay [3]; at Androgen receptor; in assay [5]) was over 30 µM throughout.

In assay [1], `OC[C@H]1NC[C@H](O)[C@@H](O)[C@H]1O` showed a concentration at half-maximal activity (AC50) of over 30 µM.

As to `CN(C)CCC=C1c2ccccc2CCc2ccccc21` [AMITRIPTYLINE], the AC50 (in [2]; on Thromboxane A2 receptor; in [3]; in [5]) was over 30 µM in each case.

With `CC(=O)Oc1ccccc1C(=O)O` [ASPIRIN], the AC50 in [2] was over 30 µM; on Thromboxane A2 receptor it was over 30 µM; in assay [3], over 30 µM; in assay [4], over 10 µM; in assay [5], over 30 µM; on Histamine H2 receptor it was over 10 µM.

As for `CN(C)CCCC1(c2ccc(F)cc2)OCc2cc(C#N)ccc21` (configuration not stated) [CITALOPRAM], the AC50 in assay [2] is over 30 µM; in assay [3] it was over 30 µM; in assay [4], 0.273 µM; in assay [5] it was over 30 µM.

As for `C[C@H](Nc1ncnc2[nH]cnc12)c1cc2cccc(Cl)c2c(=O)n1-c1ccccc1` [DUVELISIB], the AC50 (at Androgen receptor; on D(1A) dopamine receptor; in assay [6]) was over 30 µM in each case.

In assay [6], `O=C(O)[C@@H](S)[C@@H](S)C(=O)O` came in with a concentration at half-maximal activity (AC50) of over 30 µM.

With `CC#CC(=O)N1CCC[C@H]1c1nc(-c2ccc(C(=O)Nc3ccccn3)cc2)c2c(N)nccn12` [ACALABRUTINIB], the AC50 in assay [6] was over 30 µM.

Take `O=C1[C@@H]2[C@H]3CC[C@H](C3)[C@@H]2C(=O)N1C[C@@H]1CCCC[C@H]1CN1CCN(c2nsc3ccccc23)CC1` [LURASIDONE]: the AC50 on Thromboxane A2 receptor was over 30 µM; at Androgen receptor it was 5.7 µM; in [1], 0.0699 µM.

Take `N#Cc1ccnc(N2C(=O)CC[C@H]2C(=O)N(c2cncc(F)c2)[C@H](C(=O)NC2CC(F)(F)C2)c2ccccc2Cl)c1` [IVOSIDENIB]: the AC50 in assay [1] was over 30 µM.

In [6], `C#CCN(C)Cc1ccccc1` [PARGYLINE] yielded an AC50 of over 30 µM.

As for `CCOC(=O)[C@H](CCc1ccccc1)N[C@@H](C)C(=O)N1Cc2ccccc2C[C@H]1C(=O)O`, the AC50 in assay [2] was over 30 µM; in assay [3] it was over 30 µM; in assay [4] it was over 10 µM; in [5], over 30 µM; on Histamine H2 receptor, over 10 µM.

As to `CCCCCCO[C@@H](C)c1cccc(-c2csc(NC(=O)c3cc(Cl)c(/C=C(\C)C(=O)O)c(Cl)c3)n2)c1OC` [LUSUTROMBOPAG], the AC50 in assay [6] was over 30 µM; in assay [1], 4.1 µM.

In assay [6], `O=C(Cc1cccs1)N[C@@H]1C(=O)N2C(C(=O)[O-])=C(C[n+]3ccccc3)CS[C@H]12` [CEPHALORIDINE] displayed an AC50 of over 30 µM.

With `OCCOCCN1CCN(C(c2ccccc2)c2ccc(Cl)cc2)CC1` (configuration not stated) [HYDROXYZINE], the AC50 in [2] was over 30 µM; in assay [3], over 30 µM; in assay [4] it was 0.157 µM; in [5] it was over 30 µM; at Histamine H2 receptor it was 0.188 µM.

Consider `CC(=O)SCC(Cc1ccccc1)C(=O)NCC(=O)OCc1ccccc1` (configuration not stated) [RACECADOTRIL], for which the AC50 (in assay [4]; on Histamine H2 receptor) was over 10 µM in each case.

Turning to `CCCCCCCC/C=C\CCCCCCCC(=O)O` [OLEIC ACID], in assay [1], the AC50 is 4.7 µM.

`CN(C)CCc1c[nH]c2ccc(CS(=O)(=O)N3CCCC3)cc12` [ALMOTRIPTAN] gave an AC50 in assay [4] of 0.51 µM.

In the case of `CCC[C@@]1(CCc2ccccc2)CC(O)=C([C@H](CC)c2cccc(NS(=O)(=O)c3ccc(C(F)(F)F)cn3)c2)C(=O)O1`, the AC50 on D(1A) dopamine receptor turned out to be 14 µM.

The molecule `C[C@H](CCC(=O)O)[C@H]1CC[C@H]2[C@@H]3[C@H](O)C[C@@H]4C[C@H](O)CC[C@]4(C)[C@H]3CC[C@]12C` [CHENODIOL] yielded an AC50 on D(1A) dopamine receptor of over 30 µM.

On to `Cc1ccc(C(C)C)c(O)c1` [THYMOL], for which half-maximal activity in assay [1] (AC50) was put at 25 µM.

Turning to `Nc1nnc(-c2cccc(Cl)c2Cl)c(N)n1` [LAMOTRIGINE], the AC50 in assay [2] is over 30 µM; in [3], over 30 µM; in assay [4] it was over 10 µM; in assay [5] it was over 30 µM; in assay [1], 18 µM; at Histamine H2 receptor, over 10 µM.
